Source: the NIST ThermoML archive (doi:10.1021/je050092d)

Test: molar heat capacity at constant pressure
Conditions: 101.33 kPa, Vacuum adiabatic calorimetry

CCCCCCCCCCCCCCCCCC(=O)OCC(COC(=O)CCCCCCCCCCCCCCCCC)OC(=O)CCCCCCCCCCCCCCCCC [glycerol trioctadecanoate]
Conditions	molar heat capacity at constant pressure [J/K/mol]
9.6 K, Crystal	10.7
9.65 K, Crystal	8.023
9.71 K, Crystal	12.48
10.85 K, Crystal	22.29
11.58 K, Crystal	22.29
12.51 K, Crystal	26.74
13.59 K, Crystal	30.31
13.96 K, Crystal	32.98
15.41 K, Crystal	39.23
15.56 K, Crystal	43.68
17.3 K, Crystal	62.4
17.41 K, Crystal	50.81
19.33 K, Crystal	69.54
19.45 K, Crystal	65.97
21.54 K, Crystal	79.34
21.58 K, Crystal	82.02
23.71 K, Crystal	98.06
23.86 K, Crystal	100.74
25.95 K, Crystal	115
26.19 K, Crystal	116.78
28.25 K, Crystal	135.5
28.56 K, Crystal	137.29
30.62 K, Crystal	156.9
30.93 K, Crystal	149.77
30.99 K, Crystal	158.68
33.29 K, Crystal	184.54
35.42 K, Crystal	205.04
37.51 K, Crystal	215.74
39.73 K, Crystal	224.65
41.97 K, Crystal	239.81
44.25 K, Crystal	262.99
46.55 K, Crystal	273.68
48.96 K, Crystal	294.19
51.41 K, Crystal	312.02
53.88 K, Crystal	332.52
56.39 K, Crystal	354.81
58.93 K, Crystal	372.64
61.51 K, Crystal	394.03
64.13 K, Crystal	415.43
66.78 K, Crystal	434.15
69.45 K, Crystal	451.98
72.14 K, Crystal	468.03
74.85 K, Crystal	484.07
77.59 K, Crystal	501.01
80.34 K, Crystal	514.38
83.1 K, Crystal	530.43
85.71 K, Crystal	540.24
85.88 K, Crystal	545.59
88.61 K, Crystal	554.5
88.67 K, Crystal	558.07
91.44 K, Crystal	566.09
91.47 K, Crystal	572.33
94.27 K, Crystal	578.57
97.11 K, Crystal	585.7
99.95 K, Crystal	597.29
102.8 K, Crystal	610.66
105.65 K, Crystal	612.45
108.5 K, Crystal	616.01
111.36 K, Crystal	627.6
114.22 K, Crystal	640.08
117.09 K, Crystal	651.67
119.95 K, Crystal	661.48
122.82 K, Crystal	671.28
125.7 K, Crystal	680.2
128.58 K, Crystal	690.9
131.46 K, Crystal	729.23
134.35 K, Crystal	729.23
137.23 K, Crystal	716.75
140.13 K, Crystal	728.34
143.02 K, Crystal	739.93
145.92 K, Crystal	759.54
148.83 K, Crystal	769.35
151.73 K, Crystal	778.26
154.64 K, Crystal	790.74
157.55 K, Crystal	793.42
160.46 K, Crystal	818.38
163.37 K, Crystal	826.4
166.29 K, Crystal	837.99
169.2 K, Crystal	848.69
172.12 K, Crystal	856.71
175.04 K, Crystal	870.08
177.95 K, Crystal	878.11
178.91 K, Metastable crystal	900.39
180.87 K, Crystal	890.59
181.6 K, Metastable crystal	918.22
183.79 K, Crystal	901.29
184.26 K, Metastable crystal	942.29
186.7 K, Crystal	921.79
186.88 K, Metastable crystal	974.39
189.48 K, Metastable crystal	985.98
189.62 K, Crystal	938.73
192.06 K, Metastable crystal	995.78
192.54 K, Crystal	957.45
194.63 K, Metastable crystal	998.46
195.45 K, Crystal	972.6
197.18 K, Metastable crystal	1005.6
198.37 K, Crystal	976.17
199.71 K, Metastable crystal	1029.7
201.29 K, Crystal	997.57
202.23 K, Metastable crystal	1053.7
204.21 K, Crystal	1008.3
204.74 K, Metastable crystal	1074.2
207.13 K, Crystal	1014.5
207.23 K, Metastable crystal	1089.4
209.71 K, Metastable crystal	1083.1
210.05 K, Crystal	1023.4
212.17 K, Metastable crystal	1091.2
212.96 K, Crystal	1029.7
